Data: patent US6458831B1, “Use of two plant phenols in the treatment of arteriosclerosis” (Council of Scientific and Industrial Research, priority 2000, dated 2002)

Key:
[1] = Effectiveness on administration at 250 mg/kg of body weight; type: in vivo; conditions: dosage of 250 mg/kg of body weight
CAMP phosphodiesterase = conditions: cited from earlier work
[2] = biological target: T1, human sex hormone-binding globulin (SHBG) (Homo sapiens, UniProt P04278); conditions: cited from earlier work
T1 sequence (P04278 30-402): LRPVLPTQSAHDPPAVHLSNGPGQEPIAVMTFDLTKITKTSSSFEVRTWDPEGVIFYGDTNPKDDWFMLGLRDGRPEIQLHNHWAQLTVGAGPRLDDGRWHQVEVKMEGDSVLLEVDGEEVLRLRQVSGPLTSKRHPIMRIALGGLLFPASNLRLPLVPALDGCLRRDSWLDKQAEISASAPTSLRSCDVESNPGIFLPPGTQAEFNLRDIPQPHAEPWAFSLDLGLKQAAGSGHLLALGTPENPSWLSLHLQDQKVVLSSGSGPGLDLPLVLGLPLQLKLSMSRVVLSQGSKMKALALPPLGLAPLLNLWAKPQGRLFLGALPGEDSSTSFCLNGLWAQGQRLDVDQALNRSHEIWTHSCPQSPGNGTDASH

[3] = In vitro DPPH free radical scavenging antioxidant potency; conditions: Tris-HCl buffer pH 7.4, 45 minutes in dark, absorbency at 517 nm, references probucol and α-tocopherol
Method: In vitro evaluation of free radical scavenging antioxidant potency:
Antioxidant activity of the compounds ((−)-Matairesinol and (−)-wikstromol) were tested for their capacity/potency to scavenger most widely used free radical 2,2-diphenyl-1-[…] radical (DPPH). The well-accepted and tested probucol and α-tocopherol were taken as reference compounds. 1 mg/ml DMSO concentration of the compounds [(−)-Matairesinol and (−)-wikstromol] were prepared and subsequently, serially diluted to lower concentrations with DMSO […] of test compounds were reconstituted to 1 ml in Tris-HCl buffer (pH 7.4) equal volume of 500 μm of DPPH radical dissolved in ethanol was reacted with this. After incubation for 45 minutes in dark, the absorbency at 517 nm was recorded. Radical with no compound was taken as control for calculation of % radical scavenging activity. All the readings were recorded in triplicate.

HIV = conditions: cited from earlier work
[4] = test system: p-388 lymphocyte leukemia; conditions: cited from earlier work

Compound	effectiveness when administered [1]	CAMP phosphodiesterase inhibition activity (CAMP phosphodiesterase)	binding of H-labeled 5α-dihydrotestosterone (DHT) to human SHBG [2]	antioxidant/radical scavenging potency compared with reference standards [3]	anti-HIV activity (HIV)	activity against p-388 lymphocyte leukemia [4]
COc1cc(C[C@H]2COC(=O)[C@@H]2Cc2ccc(O)c(OC)c2)ccc1O [(−)-Matairesinol, 4,4^1-dihydroxy-3, 3^1-dimethoxylignan-9, 9^1-olide]	highly effective	exhibits CAMP phosphodiesterase inhibition activity	reduce the binding	more potent antioxidant/radical scavenging potency than reference standards		
COc1cc(C[C@@H]2COC(=O)[C@@]2(O)Cc2ccc(O)c(OC)c2)ccc1O [(−)-wikstromol, 4,4^1,8-trihydroxy-3, 3^1-dimethoxyliganan-9, 9^1-olide]	highly effective			more potent antioxidant/radical scavenging potency than reference standards	anti-HIV activity	active against p-388 lymphocyte leukemia
